From patent US20250074946A1, “USE OF SE-DR AFFINITY PEPTIDE IN PREPARING DRUG FOR TREATING RHEUMATIC DISEASE” (HEBEI FITNESS BIOTECHNOLOGY CO., LTD., priority 2021, published 2025)
Read-outs that look alike come from different tables or passages of the source. Where a SMILES comes first, the peptide text is derived from it. Where no end group is shown, it is not given here.

Experiments:
[1] = system: immune system of healthy monkeys; experiment: Immune indicators of cynomolgus monkeys after one month of administration (Example 5); assay type: in vivo, cynomolgus monkey; details: once a day for 4 weeks, end of administration
From the text: Cynomolgus monkeys were used to investigate the effects of the SE-DR affinity peptide on the immune indicators of cynomolgus monkeys after continuous administration for one month. […] At the end of administration, the immune indicators, including the serum anti-FNS007 antibodies, the immunoglobulins of different serotypes, the serum complement, the peripheral blood T lymphocyte and the serum cytokines, were observed.

[2] = system: CIA rats with latent tuberculosis infection; details: for Observation on the daily condition of rats: during administration; for Tuberculosis recurrence rate / Inflammation score and area under the time curve (AUC) / Culture of MTB from lungs and spleens of rats at sacrifice: peptides 0.2 mmol, adalimumab 1 mg/kg; for Tuberculosis recurrence rate: 21 days; for Inflammation score and area under the time curve (AUC): tail i.v. once every other day for 21 days; for Culture of MTB from lungs and spleens of rats at sacrifice: sacrifice on day 22
[3] = system: PBMC; experiment: PBMC stimulation test, IL-6 in supernatant by ELISA; assay type: cell-based, human; details: PBMC 1×10^6 cell/ml, peptide 10 μg/ml, 5 days of culture
From the text: The SE-DR molecule is directly related to the pathogenesis of RA. It can present RA-related autoantigens in vivo, such as type II collagen (CII), heat shock protein 60 (Hsp60), cartilage glycoprotein (HCgp-39) and so on, and further activate autoreactive T cells, leading to the occurrence of rheumatoid arthritis. An important strategy for the treatment of RA is to use competitive inhibition to block the activation of autoreactive T cells by autoantigen peptides. […] Based on the above principles, we have designed and synthesized a series of altered peptide ligands, and screened for their affinity to SE-DR and for the activation ability on the peripheral blood T cells in RA patients. The specific steps and results are shown in Example 1 and Example 2.
3 mL ficoll was added to a 15 mL centrifuge tube, and 4 mL blood sample was then applied on the surface of ficoll. The tube was centrifuged at 400 g at 18-20° C. for 30-40 min. The upper layer of plasma was aspirated with a Pasteur pipette, and the PBMC layer (approximately 2 mL) was aspirated, and added to a 14 mL centrifuge tube previously filled with at least 3 volumes (6 mL) of PBS. The mixture was gently resuspended. The tube was centrifuged at 60-100 g for 10 min at 18-20° C. After centrifugation, the supernatant was removed with a Pasteur pipette, and the resulting cell mass was resuspended in 6-8 mL PBS and centrifuged at 18-20° C. for 10 min at 60-100 g to remove the supernatant. The cells were resuspended in an appropriate amount of 1640 complete medium and diluted to 1×10^6 cell/ml after cell counting. The diluted cell suspension was added to a 96-well plate. The positive control, allosteric peptide, was added to 100 μl cell culture to a final concentration of 10 μg/ml. The mixture was replenished to 200 μL with 1640 complete medium. After 5 days of culture, the supernatant was aspirated, centrifuged at 3000 rpm for 5 minutes, and the level of IL-6 in the supernatant was detected by ELISA.

[4] = system: CIA mice infected with chronic hepatitis B; experiment: CIA mice infected with chronic hepatitis B (Example 8); assay type: in vivo, mouse; details: for ALT level / Hepatitis B activation rate (Ratio of ALT > 100 U/L): at sacrifice, day 28; for Observation on the daily condition of mice: during administration; for Inflammation score and area under the time curve (AUC): peptides 50 μmol, Abatacept 100 μg, tail i.v. once every other day for 27 days
Method: Establishment of chronic hepatitis B model in mice: DBA/1 mice were injected with Raav8-1. 3 HBV (1×10^12 vg/mL) via tail vein to establish HBV chronic hepatitis B model.
DBA/1 mice infected with chronic hepatitis B were used to establish CIA model with chronic hepatitis B infection. Methods: Two days after the mice were injected with Raav8-1.3 HBV (1×10^12 vg/mL) via tail vein, the emulsion of bovine C II and CFA (containing 100 μg collagen) was intradermally injected into the tail head of the mice for immunization. After 21 days, the mice were boosted once by intraperitoneal injection of the emulsion (containing 100 μg collagen) prepared by bovine C II and IFA. Thereafter, the morphological changes of the four paws of the mice were examined every day, and the mice were randomly assigned to the treatment group at inflammation score of 1. […] Another 10 mice with latent hepatitis B infection were not subjected to model establishment and set as the control group. PBS was administrated to both the model group and the control group. The mice in each group were given the corresponding drugs by tail intravenous injection at the volume of 10 ml/kg, once every other day, for 27 consecutive days. The mice were sacrificed on day 28 after administration. The inflammation scores of the four paws of the mice in each group were evaluated during the administration. The serological indicators for virus injection and liver function of the mice were detected on the day of booster immunization (22 days after tail vein injection) and at the time of sacrifice.

[5] = system: immune system of healthy rats; experiment: Immune indicators of SD rats after one month of administration (Example 4); assay type: in vivo, rat; details: once a day for 4 weeks, end of administration
Method: SD rats were used to investigate the effects of the SE-DR affinity peptides on the immune indicators of the rats after continuous administration for one month. […] At the end of administration, analysis was conducted on the serum anti-FNS007 antibodies, different types of serum immunoglobulins, the serum complement, the peripheral blood T lymphocyte and the serum cytokines.

[6] = system: CIA rats; experiment: CIA rat model: inflammation score AUC and peripheral blood T-cell subtypes (Example 3); assay type: in vivo; details: 0.2 mmol; for Inflammation score and area under the time curve (AUC): female Lewis CIA rats, tail vein once every other day for 15 days; for Th1 (%) / Th2 (%) / Th17 (%) / Treg (%): peripheral blood, […] after end of administration, flow cytometry
Method: Collagen-induced arthritis (CIA) model was established by intradermal injection of the emulsion formulated using type II bovine collagen (CII) together with incomplete Freund's adjuvant (IFA) into the tail head of a female Lewis rat. After the model establishment, the morphological changes of rats' four paws were examined every day. […] Except for the model group, the dosage of polypeptide was all set as 0.2 mmol. A control group was also set up, in which the drug was injected into the tail vein once every other day for […]. The area under the curve (AUC) of the inflammation score was used for the efficacy analysis from the day the rats were enrolled, once every other day, until the end of administration.

[7] = system: CIA rats; assay type: in vivo, rat
From the text: Female Lewis rats were used to establish CIA model. Methods: The rats were immunized by intradermal injection with the emulsion prepared by bovine C II and IFA at the tail head. After 7 days, the rats were boosted once with the same method. Thereafter, the morphological changes of the four paws of the rats were examined every day. […] Another 8 female Lewis rats were not subjected to model establishment and set as the control group. PBS was administrated to both the model group and the control group. […] The inflammation scores of the four paws of the rats in each group were evaluated during the administration (once every other day), and the area under the curve (AUC) of the inflammation score was calculated during the administration. During drug discontinuation, the inflammation scores of the four paws of the rats in each group were continuously evaluated (once every other day), and the rats were sacrificed on day 22 after drug discontinuation. HE staining was performed on the ankle joint for tissue injury evaluation. The specific scoring criteria were as follows: 0=normal synovial tissue; 1=synovial hyperplasia and inflammatory cell infiltration; 2=pannus formation and cartilage erosion; 3=destruction of most of the cartilage with subchondral bone erosion; 4=loss of joint integrity, ankylosis.

[8] = inflammation score AUC, FNS007 0.2 mmol, adalimumab 1 mg/kg, i.v. once every other day

Molecule: CC[C@H](C)[C@H](N)C(=O)N[C@@H](Cc1c[nH]c2ccccc12)C(=O)N[C@@H](Cc1ccc(O)cc1)C(=O)N[C@H](C(=O)N[C@@H](CO)C(=O)N[C@@H](CS)C(=O)N[C@@H](Cc1ccccc1)C(=O)NCC(=O)N[C@@H](CS)C(=O)N[C@@H](CCC(=O)O)C(=O)N[C@H](C(=O)N[C@@H](Cc1c[nH]cn1)C(=O)N[C@@H](C)C(=O)N[C@@H](CCSC)C(=O)N[C@@H](CC(C)C)C(=O)O)[C@@H](C)O)[C@@H](C)CC [APL9] (H-IWYISCFGCETHAML-OH; N-terminus and C-terminus assumed)
- CD3% [1]: 66.91 ± 11.93%
- CD4% [1]: 28.67 ± 14.78%
- CD8% [1]: 28.67 ± 14.78%
- IFN-γ [1]: 5.01 ± 0.69 pg/mL
- IL-2 [1]: 4.60 ± 0.55 pg/mL
- IL-4 [1]: 2.24 ± 0.12 pg/mL
- TNF-α [1]: 2.38 ± 0.24 pg/mL
- Observation on the daily condition of rats [2]: No abnormality
- Tuberculosis recurrence rate [2]: 0%
- Inflammation score and area under the time curve (AUC) [2]: 54.49 ± 33.12
- Culture of MTB from lungs and spleens of rats at sacrifice [2]: Negative
- IL-6 levels in the supernatant [3]: 2.8 ng/mL
- ALT level [4]: 47.55 ± 18.78 U/L
- Hepatitis B activation rate (Ratio of ALT > 100 U/L) [4]: 0%
- Observation on the daily condition of mice [4]: No abnormality
- Inflammation score and area under the time curve (AUC) [4]: 97.63 ± 50.13
- CD3% [5]: 36.08 ± 12.9%
- CD4% [5]: 20.45 ± 8.45%
- CD8% [5]: 17.10 ± 8.82%
- IFN-γ [5]: 2.35 ± 0.27 pg/mL
- IL-2 [5]: 3.03 ± 1.05 pg/mL
- IL-4 [5]: 1.95 ± 0.95 pg/mL
- TNF-α [5]: 4.79 ± 1.08 pg/mL
- Inflammation score and area under the time curve (AUC) [6]: 57.39 ± 39.33
- Th1 (%) [6]: 0.20 ± 0.05 %
- Th2 (%) [6]: 4.27 ± 0.53%
- Th17 (%) [6]: 0.95 ± 0.12 %
- Treg (%) [6]: 5.35 ± 0.84 %

Molecule: MGPKGRTVIIEQSLGSPKVTK [APL21]
- CD3% [1]: 66.16 ± 4.34%
- CD4% [1]: 23.43 ± 8.46%
- CD8% [1]: 23.43 ± 8.46%
- IFN-γ [1]: 5.03 ± 0.22 pg/mL
- IL-2 [1]: 4.18 ± 0.41 pg/mL
- IL-4 [1]: 1.90 ± 0.15 pg/mL
- TNF-α [1]: 2.16 ± 0.14 pg/mL
- Observation on the daily condition of rats [2]: No abnormality
- Tuberculosis recurrence rate [2]: 0%
- Inflammation score and area under the time curve (AUC) [2]: 53.06 ± 37.25
- Culture of MTB from lungs and spleens of rats at sacrifice [2]: Negative
- IL-6 levels in the supernatant [3]: 4.2 ng/mL
- ALT level [4]: 48.29 ± 21.24 U/L
- Hepatitis B activation rate (Ratio of ALT > 100 U/L) [4]: 0%
- Observation on the daily condition of mice [4]: No abnormality
- Inflammation score and area under the time curve (AUC) [4]: 95.71 ± 51.88
- CD3% [5]: 38.16 ± 8.98%
- CD4% [5]: 18.72 ± 5.85%
- CD8% [5]: 19.06 ± 5.4%
- IFN-γ [5]: 2.64 ± 0.37 pg/mL
- IL-2 [5]: 3.36 ± 1.45 pg/mL
- IL-4 [5]: 2.32 ± 1.37 pg/mL
- TNF-α [5]: 5.25 ± 1.28 pg/mL
- Inflammation score and area under the time curve (AUC) [6]: 59.44 ± 38.29
- Th1 (%) [6]: 0.19 ± 0.08 %
- Th2 (%) [6]: 4.23 ± 0.47%
- Th17 (%) [6]: 0.98 ± 0.10%
- Treg (%) [6]: 5.14 ± 0.90 %

Molecule: YAKQATLALA [APL7]
- CD3% [1]: 61.83 ± 11.98%
- CD4% [1]: 26.23 ± 7.31%
- CD8% [1]: 23.72 ± 6.35%
- IFN-γ [1]: 5.27 ± 0.59 pg/mL
- IL-2 [1]: 4.24 ± 0.34 pg/mL
- IL-4 [1]: 2.04 ± 0.19 pg/mL
- TNF-α [1]: 2.44 ± 0.22 pg/mL
- Observation on the daily condition of rats [2]: No abnormality
- Tuberculosis recurrence rate [2]: 0%
- Inflammation score and area under the time curve (AUC) [2]: 55.93 ± 29.87
- Culture of MTB from lungs and spleens of rats at sacrifice [2]: Negative
- IL-6 levels in the supernatant [3]: 3.7 ng/mL
- ALT level [4]: 48.53 ± 20.09 U/L
- Observation on the daily condition of mice [4]: No abnormality
- Inflammation score and area under the time curve (AUC) [4]: 96.19 ± 48.25
- CD3% [5]: 36.69 ± 17^ %
- CD4% [5]: 18.29 ± 9.08%
- CD8% [5]: 18.66 ± 8.61%
- IFN-γ [5]: 2.33 ± 0.29 pg/mL
- IL-2 [5]: 3.06 ± 0.97 pg/mL
- IL-4 [5]: 2.55 ± 1.30 pg/mL
- TNF-α [5]: 5.42 ± 1.23 pg/mL
- Inflammation score and area under the time curve (AUC) [6]: 60.48 ± 37.31
- Th1 (%) [6]: 0.17 ± 0.10 %
- Th2 (%) [6]: 4.38 ± 0.81 %
- Th17 (%) [6]: 0.92 ± 0.08%
- Treg (%) [6]: 5.22 ± 0.77 %

Molecule: adalimumab
- Observation on the daily condition of rats [2]: obvious toxicity symptoms such as piloerection and reduced activity
- Tuberculosis recurrence rate [2]: 60%
- Tuberculosis recurrence rate ([2]; listed as adalimumab): 60%
- Inflammation score and area under the time curve (AUC) [2]: 50.42 ± 27.13
- Inflammation score and area under the time curve (AUC) ([2]; listed as adalimumab): significantly reduce the inflammation score
- Culture of MTB from lungs and spleens of rats at sacrifice [2]: 6/10 Positive
- Culture of MTB from lungs and spleens of rats at sacrifice ([2]; listed as adalimumab): positive in 6/10 rats
- inflammation score during drug discontinuation compared with that at the time of drug discontinuation ([7]; 21 days of observation after stopping at day 21): significantly increased
- Pathological score during 21 days of drug discontinuation ([7]; HE staining of ankle joint, score 0-4): 2.69 ± 0.80
- AUC, during drug discontinuation (day 22-42) ([7]; inflammation score AUC after stopping administration at day 21): 96.85 ± 26.51
- AUC, during administration (day 1-21) [7, 8]: 54.51 ± 22.72
- AUC, the first week during administration [7, 8]: 13.93 ± 4.81
- AUC, during administration (day 1-21) ([7]; inflammation score AUC, FNS007 0.2 mmol, adalimumab 1 mg/kg, i.v. once every other day, listed as adalimumab): 54.51
- Incidence of infection in rats ([7]; rat, in vivo): 10%
- Observation on the daily state of rats ([7]; rat, in vivo): Piloerection, epistaxis, prostration, reduced activity, etc.
